Measured values: paper PMC6008299, “Impact of race on dose selection of molecular-targeted agents in early-phase oncology trials” (British Journal of Cancer, 2018)

Experiments:
[1] = tested on: CYP2C8, CYP3A4, and CYP3A5; design: method as in printed; settings: stated in discussion, ref not given; cited from earlier work
glucose = assay: Pharmacodynamics: glucose after dosing; type: in vivo, human; settings: decreased toward baseline at 24 h
Procedure: (§1) In both studies, the PK profile of DS-7423 was characterised during cycle 1 on days 1 and 8. For PD analysis, glucose, C-peptide, and Akt phosphorylation were measured in platelet-rich plasma collected at predose, 1, 2, 4, 6, and 24 h after dosing on days 1 and 15. Tumour assessment was performed every two cycles using Response Evaluation Criteria in Solid Tumours (RECIST) version 1.1 in both studies. 18F-Fluoro-2-deoxy-D-glucose positron emission tomography ([18F]-FDG) was performed as an exploratory endpoint at baseline and on day 4.[10]

advanced solid tumours = assay: Tumour assessment RECIST 1.1, Japanese study; type: in vivo, human; settings: Japan; of 25 patients
Procedure: as §1

[2] = tested on: patients with advanced, refractory solid tumours; assay: Phase I dose-escalation study J102 (Japan): safety, DLT, MTD; type: in vivo
Description: Studies were approved by the Institutional Review Board at the participating institutions and regulatory authorities. Written informed consent in English and Japanese was obtained from all patients prior to enrollment.
Secondary and exploratory objectives were to evaluate PK, tumour response, and PD effects. Treatment-emergent adverse events (TEAE) were graded using the Common Terminology Criteria for Adverse Events version 4.0. A dose-limiting toxicity (DLT) was defined as a grade ≥3 clinically significant toxicity, with the exceptions of grade ≥4 anaemia and prolonged grade 3 neutropenia. Both studies were open-label, phase I dose-escalation studies. In Japan, the study was conducted at a single centre, while the US study was conducted at three sites. […] In the US, an accelerated titration design was used at low doses followed by a mCRM with EWOC. Briefly, the dose was escalated based on safety data in a single patient until a grade 2 or higher toxicity was observed during cycle 1 or the DLT period (days 1–28). […] Prophylactic granulocyte colony-stimulating factor and antiemetics were not permitted during cycle 1.

[3] = Pharmacokinetics in US cohort (U101); type: in vivo, human
Procedure: as §1
The data cut-off for the primary analysis occurred after all patients had either discontinued the study or completed 6 months of study drug treatment. Descriptive statistics were provided for selected demographic, safety, PK, and PD data by dose and time as appropriate. Descriptive statistics on continuous data included means, medians, standard deviations, and ranges, while categorical data were summarised using frequency counts and percentages. No inferential analysis to compare dose levels was performed due to limited sample sizes. The WinNonlin software was used for PK analysis.

[4] = 96 mg, Japanese cohort (56–96 mg group, n = 6)
[5] = 4–32 mg Japanese cohort (n = 12)
[6] = 56–96 mg Japanese cohort (n = 6)
[7] = dose level 4, US cohort (n = 1)
[8] = dose level 8, US cohort (n = 1)
[9] = dose level 16, US cohort (n = 3)
[10] = dose level 160, US cohort (n = 4)
[11] = dose level 240, US cohort (n = 7)

CC(=O)N1CCN(c2nc3c(N4CCOCC4)nc(-c4cnc(N)nc4)nc3n2CC(F)(F)F)C[C@H]1C [DS-7423]
5: Patients with tumour shrinkage and durable disease control (advanced solid tumours) | Diarrhoea (TEAE), n patients ([2]; 240 mg Japanese cohort (n = 6)) | Rash (TEAE), n patients ([2]; 240 mg Japanese cohort (n = 6)) | Fatigue (TEAE), n patients [2, 5]
133.5 ng·h/mL: Mean AUCtau [3, 9]
1180.5 ng·h/mL: Mean AUCtau [3, 10]
21.86 ng·h/mL: Mean AUCtau [3, 7]
4: Decreased appetite (TEAE), n patients ([2]; 240 mg Japanese cohort (n = 6)) | Vomiting (TEAE), n patients [2, 5] | Diarrhoea (TEAE), n patients [2, 6] | Rash (TEAE), n patients [2, 6]
1 (1 G4): Hyperglycaemia (TEAE), n patients ([2]; 240 mg Japanese cohort (n = 6)) | Hyperglycaemia G4, n patients ([2]; 240 mg Japanese cohort (n = 6))
1: Hyperglycaemia G3, n patients ([2]; 56 mg, Japanese cohort (56–96 mg group, n = 6)) | Diarrhoea G3, n patients [2, 4] | Hyperglycaemia G3, n patients [2, 4] | Abdominal pain (TEAE), n patients ([2]; 160 mg Japanese cohort (n = 3)) | Constipation (TEAE), n patients ([2]; 160 mg Japanese cohort (n = 3)) | Decreased appetite G3, n patients ([2]; 160 mg Japanese cohort (n = 3)) | Diarrhoea G3, n patients ([2]; 160 mg Japanese cohort (n = 3)) | Dyspnea (TEAE), n patients ([2]; 160 mg Japanese cohort (n = 3)) | Edema (TEAE), n patients ([2]; 160 mg Japanese cohort (n = 3)) | Fatigue (TEAE), n patients ([2]; 160 mg Japanese cohort (n = 3)) | Pyrexia (TEAE), n patients ([2]; 160 mg Japanese cohort (n = 3)) | Abdominal pain (TEAE), n patients ([2]; 240 mg Japanese cohort (n = 6)) | Back pain (TEAE), n patients ([2]; 240 mg Japanese cohort (n = 6)) | Constipation (TEAE), n patients ([2]; 240 mg Japanese cohort (n = 6)) | Cough (TEAE), n patients ([2]; 240 mg Japanese cohort (n = 6)) | Dry mouth (TEAE), n patients ([2]; 240 mg Japanese cohort (n = 6)) | Abdominal pain (TEAE), n patients [2, 5] | Back pain (TEAE), n patients [2, 5] | Blood creatinine increased (TEAE), n patients [2, 5] | Cough (TEAE), n patients [2, 5] | AST increased (TEAE), n patients [2, 6] | Abdominal pain (TEAE), n patients [2, 6] | Constipation (TEAE), n patients [2, 6] | Cough (TEAE), n patients [2, 6] | Dry mouth (TEAE), n patients [2, 6] | Dysgeusia (TEAE), n patients [2, 6] | Edema (TEAE), n patients [2, 6] | Nausea (TEAE), n patients [2, 6] | Stomatitis (TEAE), n patients [2, 6] | Vomiting (TEAE), n patients [2, 6]
20 ng/mL: Mean Cmax [3, 8] | Mean Cmax [3, 9]
0: AST increased (TEAE), n patients ([2]; 160 mg Japanese cohort (n = 3)) | Back pain (TEAE), n patients ([2]; 160 mg Japanese cohort (n = 3)) | Blood creatinine increased (TEAE), n patients ([2]; 160 mg Japanese cohort (n = 3)) | Dehydration (TEAE), n patients ([2]; 160 mg Japanese cohort (n = 3)) | Dry mouth (TEAE), n patients ([2]; 160 mg Japanese cohort (n = 3)) | Lung infection/ pneumonia (TEAE), n patients ([2]; 160 mg Japanese cohort (n = 3)) | AST increased (TEAE), n patients ([2]; 240 mg Japanese cohort (n = 6)) | Blood creatinine increased (TEAE), n patients ([2]; 240 mg Japanese cohort (n = 6)) | Dehydration (TEAE), n patients ([2]; 240 mg Japanese cohort (n = 6)) | Dyspnea (TEAE), n patients ([2]; 240 mg Japanese cohort (n = 6)) | AST increased (TEAE), n patients [2, 5] | Dehydration (TEAE), n patients [2, 5] | Dry mouth (TEAE), n patients [2, 5] | Hyperglycaemia (TEAE), n patients [2, 5] | Lung infection/ pneumonia (TEAE), n patients [2, 5] | Pyrexia (TEAE), n patients [2, 5] | Back pain (TEAE), n patients [2, 6] | Blood creatinine increased (TEAE), n patients [2, 6] | Dehydration (TEAE), n patients [2, 6] | Dyspnea (TEAE), n patients [2, 6] | Lung infection/ pneumonia (TEAE), n patients [2, 6] | Pyrexia (TEAE), n patients [2, 6]
12 h: T1/2 [3, 11]
7: Decreased appetite (TEAE), n patients [2, 5]
6 to 7 h: T1/2 [3, 7] | T1/2 [3, 8] | T1/2 [3, 9] | T1/2 [3, 10]
4 ng/mL: Mean Cmax [3, 7]
lung infections and hyperglycaemia: Grade 3 DLT ([2]; Japanese study, 240-mg cohort)
2: Cough (TEAE), n patients ([2]; 160 mg Japanese cohort (n = 3)) | Diarrhoea (TEAE), n patients ([2]; 160 mg Japanese cohort (n = 3)) | Dysgeusia (TEAE), n patients ([2]; 160 mg Japanese cohort (n = 3)) | Rash (TEAE), n patients ([2]; 160 mg Japanese cohort (n = 3)) | Stomatitis (TEAE), n patients ([2]; 160 mg Japanese cohort (n = 3)) | Vomiting (TEAE), n patients ([2]; 160 mg Japanese cohort (n = 3)) | Fatigue (TEAE), n patients ([2]; 240 mg Japanese cohort (n = 6)) | Pyrexia (TEAE), n patients ([2]; 240 mg Japanese cohort (n = 6)) | Dyspnea (TEAE), n patients [2, 5] | Edema (TEAE), n patients [2, 5] | Decreased appetite (TEAE), n patients [2, 6] | Hyperglycaemia (TEAE), n patients [2, 6]
involved in the metabolism: Involvement of CYP2C8, CYP3A4, and CYP3A5 in metabolism [1]
2 to 4 h: Tmax [3, 7] | Tmax [3, 8] | Tmax [3, 9] | Tmax [3, 10] | Tmax [3, 11]
3: Decreased appetite (TEAE), n patients ([2]; 160 mg Japanese cohort (n = 3)) | Nausea (TEAE), n patients ([2]; 160 mg Japanese cohort (n = 3)) | Dysgeusia (TEAE), n patients ([2]; 240 mg Japanese cohort (n = 6)) | Edema (TEAE), n patients ([2]; 240 mg Japanese cohort (n = 6)) | Vomiting (TEAE), n patients ([2]; 240 mg Japanese cohort (n = 6)) | Constipation (TEAE), n patients [2, 5] | Dysgeusia (TEAE), n patients [2, 5] | Rash (TEAE), n patients [2, 5] | Stomatitis (TEAE), n patients [2, 5] | Fatigue (TEAE), n patients [2, 6]
59 ng/mL: Mean Cmax [3, 10]
6: Nausea (TEAE), n patients ([2]; 240 mg Japanese cohort (n = 6)) | Stomatitis (TEAE), n patients ([2]; 240 mg Japanese cohort (n = 6)) | Diarrhoea (TEAE), n patients [2, 5] | Nausea (TEAE), n patients [2, 5]
92.0 ng/mL: Mean Cmax [3, 11]
131 ng·h/mL: Mean AUCtau [3, 8]
1 (1 G3): Hyperglycaemia (TEAE), n patients ([2]; 160 mg Japanese cohort (n = 3)) | Hyperglycaemia G3, n patients ([2]; 160 mg Japanese cohort (n = 3)) | Lung infection/ pneumonia (TEAE), n patients ([2]; 240 mg Japanese cohort (n = 6)) | Lung infection/ pneumonia G3, n patients ([2]; 240 mg Japanese cohort (n = 6))
1458.2 ng·h/mL: Mean AUCtau [3, 11]
240 mg: MTD ([2]; Japanese study, Asian patients)
observed as early as 4 h after dosing: Hyperglycaemia (on-target effect) (glucose)
